This note sets out measurements from patent publication US4078079A, “Thiocyano-xanthate miticides” (Stauffer Chemical Company, priority 1976, dated 1978).

Assay [1] concerns Two-spotted Mite (2-SM) Tetranychus urticae (Koch). Nature of the assay: Plant Dip Assay on Two-Spotted Mite, 2-SM PE. The assay is classed as in vivo. To be noted: infested Pinto Bean plants dipped 2-3 seconds, mortality after seven days, adult mites. From the text: (§1) The Two-spotted Mite (2-SM) Tetranychus urticae (Koch) is subjected to evaluation tests for miticidal activity. Plant Dip Assay on Two-Spotted Mite [Tetranychus urticae (Koch)] Pinto Bean plants (Phaseolus sp.) approximately 10 cm tall, are transplanted into sandy loam soil in 3 inch clay pots and thoroughly infested with two-spotted mites of mixed ages and sexes. Twenty-four hours later the infested plants are inverted and dipped for 2-3 seconds in 50-50 acetone-water solutions of the test chemicals. Treated plants are held in the greenhouse, and seven days later mortality is determined for both the adult mites and the nymphs hatching from eggs which were on the plants at the time of treatment. Test concentrations range from 0.05% down to that at which 50% mortality occurs. The values obtained in this test are found in Table VII under the Columns 2SM-PE and 2SM-Eggs.

The test system of the next assay is Staphylococcus aureus. Nature of the assay: In Vitro Agar Screening Tests (Example 5). Format: cell-based. The settings on record: S. aureus, nutrient agar, 37° C, read-out: Minimum Inhibitory Concentration. The protocol: (§2) This test measures the bactericidal and fungicidal properties of a compound when in contact with growing bacteria or fungi in an artificial medium. The test is conducted by adding 20 ml. portions of a suitable warm sterile agar solution into 20 × 100 Petri dishes. Then, the test compound, in 0.5% acetone solution, is added to the Petri dishes at levels of 1, 5, 10 and 50 ug/ml. and mixed with the warm mobile agar solution. The treated agar mixture is then allowed to come to room temperature and solidify. Cells of the chosen organism are streaked on the surface of the solidified agar and are then incubated for such lengths of time that untreated samples containing no toxicant show luxurious growth typical of the particular organism. This time varies from 24 hours to one week depending on the particular organism. The fungi are incubated at 30° C and the bacteria are incubated at 37° C. Nutrient agar is used as the medium in this test for the bacteria. Potato dextrose is used as the medium for the fungi. The extent of growth is noted at the end of the incubation period.

For another assay, the system named is Pencillium italicum. Briefly: In Vitro Agar Screening Tests (Example 5). Format: cell-based. To be noted: Penicillium italicum, P. italicum, potato dextrose, 30° C, read-out: Minimum Inhibitory Concentration. The protocol:
as §2

In the next assay the test system is Escherichia coli. Nature of the assay: In Vitro Agar Screening Tests (Example 5). Format: cell-based. The settings on record: E. coli, nutrient agar, 37° C, read-out: Minimum Inhibitory Concentration. The protocol:
as §2

The test system of the next assay is Aspergillus niger. Nature of the assay: In Vitro Agar Screening Tests (Example 5). Format: cell-based. To be noted: A. niger, potato dextrose, 30° C, read-out: Minimum Inhibitory Concentration. The protocol:
as §2

For assay [2], the system named is Two-spotted Mite (2-SM) Tetranychus urticae (Koch) eggs. Briefly: Plant Dip Assay on Two-Spotted Mite, 2-SM Eggs. The assay is classed as in vivo. To be noted: infested Pinto Bean plants dipped 2-3 seconds, mortality after seven days, nymphs hatching from eggs.
Excerpt: as §1

The mark [3] stands for this setting: partial control at this concentration.

Values after ≈ are worked out from the molar mass of the structure shown. Where two headings read alike, the source gives them in different places. Some results are limits rather than exact numbers.

Take `Cc1ccccc1OCCOC(=S)SCSC#N` [Compound 12]: the “2-SM PE: concentration at which 50% mortality occurs” value in assay [1] is “.01%”. Moreover, the MIC in the assay on Staphylococcus aureus is 5 µg/mL (≈ 16.7 µM); in the assay with Pencillium italicum (setting [3]), 0.125 µg/mL (≈ 0.417 µM); with Escherichia coli, more than 50 µg/mL; in the assay on Aspergillus niger, 1 µg/mL (≈ 3.34 µM). In addition, in assay [2], the “2-SM Eggs: concentration at which 50% mortality occurs” value was “.03%”.

With `CCCCOCCOC(=S)SCSC#N` [Compound 6], the “2-SM PE: concentration at which 50% mortality occurs” value in assay [1] is reported as “.03%”. Moreover, the MIC was found to be 5 µg/mL (≈ 18.8 µM) in the assay with Staphylococcus aureus, 0.5 µg/mL (≈ 1.88 µM) in the assay on Pencillium italicum, 50 µg/mL (≈ 188 µM) with Escherichia coli and 0.5 µg/mL (≈ 1.88 µM) in the assay on Aspergillus niger.

Regarding `COc1ccc(OCCOC(=S)SCSC#N)cc1` [Compound 11], in assay [1], the “2-SM PE: concentration at which 50% mortality occurs” value is “.05%”. In addition, the MIC in the assay with Staphylococcus aureus came to 5 µg/mL (≈ 15.9 µM); in the assay with Pencillium italicum (setting [3]), 0.25 µg/mL (≈ 0.793 µM); in the assay on Escherichia coli, 25 µg/mL (≈ 79.3 µM); in the assay on Aspergillus niger it was 1 µg/mL (≈ 3.17 µM). Also, the “2-SM Eggs: concentration at which 50% mortality occurs” value in assay [2] is recorded as “.05%”.

With `CCSCCOC(=S)SCSC#N` [Compound 4], the MIC in the assay with Staphylococcus aureus was 5 µg/mL (≈ 19.7 µM); with Pencillium italicum, 0.5 µg/mL (≈ 1.97 µM); in the assay with Escherichia coli, 50 µg/mL (≈ 197 µM); in the assay on Aspergillus niger it was 5 µg/mL (≈ 19.7 µM).

Consider `N#CSCSC(=S)OCCOc1ccccc1` [Compound 2], for which the MIC in the assay with Staphylococcus aureus turned out to be 10 µg/mL (≈ 35 µM); in the assay on Pencillium italicum it was 0.25 µg/mL (≈ 0.876 µM); in the assay on Aspergillus niger, 1 µg/mL (≈ 3.5 µM).

Regarding `N#CSCSC(=S)OCCOc1ccc(Cl)cc1` [Compound 13], in assay [1], the “2-SM PE: concentration at which 50% mortality occurs” value is recorded as “> .05%”. Moreover, the MIC was 5 µg/mL (≈ 15.6 µM) in the assay with Staphylococcus aureus, 0.5 µg/mL (≈ 1.56 µM) with Pencillium italicum (setting [3]), more than 50 µg/mL with Escherichia coli and 1 µg/mL (≈ 3.13 µM) in the assay with Aspergillus niger. Also, the “2-SM Eggs: concentration at which 50% mortality occurs” value in assay [2] is “> .05%”.

Consider `CCCCOCCOCCOC(=S)SCSC#N` [Compound 7], for which the “2-SM PE: concentration at which 50% mortality occurs” value in assay [1] is “.03%”. For the same molecule, the MIC in the assay on Staphylococcus aureus, with Pencillium italicum and with Aspergillus niger was 5 µg/mL (≈ 16.2 µM) in each case.

`Cc1ccc(OCCOC(=S)SCSC#N)cc1` [Compound 10]: the “2-SM PE: concentration at which 50% mortality occurs” value in assay [1] is recorded as “> .05%”. Further, the values for the MIC in the assay with Staphylococcus aureus, in the assay on Pencillium italicum and in the assay on Aspergillus niger were 10 µg/mL (≈ 33.4 µM), 0.25 µg/mL (≈ 0.835 µM) and 1 µg/mL (≈ 3.34 µM), respectively. Also, the “2-SM Eggs: concentration at which 50% mortality occurs” value in assay [2] is on record as “> .05%”.

Take `N#CSCSC(=S)OCCOc1ccccc1Cl` [Compound 8]: the “2-SM PE: concentration at which 50% mortality occurs” value in assay [1] is listed as “.05%”. In addition, the MIC with Staphylococcus aureus was 10 µg/mL (≈ 31.3 µM); in the assay on Pencillium italicum, 0.5 µg/mL (≈ 1.56 µM); with Aspergillus niger, 5 µg/mL (≈ 15.6 µM).

Regarding `COCCOC(=S)SCSC#N` [Compound 3], the “2-SM PE: concentration at which 50% mortality occurs” value in assay [1] is reported as “.01%”. In addition, the MIC was found to be 50 µg/mL (≈ 224 µM) with Staphylococcus aureus, 0.5 µg/mL (≈ 2.24 µM) with Pencillium italicum, 50 µg/mL (≈ 224 µM) with Escherichia coli and 5 µg/mL (≈ 22.4 µM) in the assay on Aspergillus niger. The “2-SM Eggs: concentration at which 50% mortality occurs” value in assay [2] is recorded as “.01%”.

For the molecule `Cc1ccc(SCCOC(=S)SCSC#N)cc1` [Compound 17], in assay [1], the “2-SM PE: concentration at which 50% mortality occurs” value is “> .05%”. Further, the MIC in the assay with Staphylococcus aureus is 5 µg/mL (≈ 15.8 µM); in the assay on Pencillium italicum (setting [3]) it was 0.5 µg/mL (≈ 1.58 µM); in the assay with Escherichia coli (setting [3]), 50 µg/mL (≈ 158 µM); in the assay on Aspergillus niger (setting [3]) it was 1 µg/mL (≈ 3.17 µM). Moreover, in assay [2], the “2-SM Eggs: concentration at which 50% mortality occurs” value is recorded as “> .05%”.

On to `N#CSCSC(=S)OCCSc1ccccc1` [Compound 9], for which the “2-SM PE: concentration at which 50% mortality occurs” value in assay [1] is “> .05%”. Further, the MIC with Staphylococcus aureus was determined as 5 µg/mL (≈ 16.6 µM); with Pencillium italicum it was 1 µg/mL (≈ 3.32 µM); in the assay on Aspergillus niger it was 1 µg/mL (≈ 3.32 µM). Besides, the “2-SM Eggs: concentration at which 50% mortality occurs” value in assay [2] is on record as “> .05%”.

For `N#CSCSC(=S)OCCOc1ccc(Cl)cc1Cl` [Compound 18], the MIC in the assay with Staphylococcus aureus, with Pencillium italicum and in the assay with Aspergillus niger was 5 µg/mL (≈ 14.1 µM) throughout.

As to `N#CSCSC(=S)OCCSc1ccc(Cl)cc1` [Compound 14], in assay [1], the “2-SM PE: concentration at which 50% mortality occurs” value is reported as “.008%”. Besides, the MIC with Staphylococcus aureus was less than 5 µg/mL; in the assay on Pencillium italicum (setting [3]), 1 µg/mL (≈ 2.98 µM); with Escherichia coli, more than 50 µg/mL; in the assay on Aspergillus niger (setting [3]), 1 µg/mL (≈ 2.98 µM). The “2-SM Eggs: concentration at which 50% mortality occurs” value in assay [2] is given as “.003%”.

As to `N#CSCSC(=S)OCCSc1ccc2ccccc2c1` [Compound 15], the “2-SM PE: concentration at which 50% mortality occurs” value in assay [1] is recorded as “> .05%”. The MIC was 0.25 µg/mL (≈ 0.711 µM) in the assay with Staphylococcus aureus (setting [3]), 5 µg/mL (≈ 14.2 µM) with Pencillium italicum, more than 50 µg/mL with Escherichia coli and 5 µg/mL (≈ 14.2 µM) with Aspergillus niger (setting [3]). In assay [2], the “2-SM Eggs: concentration at which 50% mortality occurs” value is “> .05%”.
